Experimental data taken from US7618990B2, “Oxazolidone derivatives as PR modulators” (Wyeth, priority 2006, dated 2009).

Assays:
[1] = biological target: T1, progesterone receptor (PR) (Homo sapiens, UniProt P06401); test: Progesterone receptor whole cell competition binding assay using T47D cells; details: intact T47D cells, 3 nM 3H-progesterone, 3 h at 37° C.
T1 construct: in live, intact (whole) cells using the human breast carcinoma T47D cell line; endogenous in cells; host or cells: T47D human breast carcinoma cells
T1 sequence (P06401 1-933): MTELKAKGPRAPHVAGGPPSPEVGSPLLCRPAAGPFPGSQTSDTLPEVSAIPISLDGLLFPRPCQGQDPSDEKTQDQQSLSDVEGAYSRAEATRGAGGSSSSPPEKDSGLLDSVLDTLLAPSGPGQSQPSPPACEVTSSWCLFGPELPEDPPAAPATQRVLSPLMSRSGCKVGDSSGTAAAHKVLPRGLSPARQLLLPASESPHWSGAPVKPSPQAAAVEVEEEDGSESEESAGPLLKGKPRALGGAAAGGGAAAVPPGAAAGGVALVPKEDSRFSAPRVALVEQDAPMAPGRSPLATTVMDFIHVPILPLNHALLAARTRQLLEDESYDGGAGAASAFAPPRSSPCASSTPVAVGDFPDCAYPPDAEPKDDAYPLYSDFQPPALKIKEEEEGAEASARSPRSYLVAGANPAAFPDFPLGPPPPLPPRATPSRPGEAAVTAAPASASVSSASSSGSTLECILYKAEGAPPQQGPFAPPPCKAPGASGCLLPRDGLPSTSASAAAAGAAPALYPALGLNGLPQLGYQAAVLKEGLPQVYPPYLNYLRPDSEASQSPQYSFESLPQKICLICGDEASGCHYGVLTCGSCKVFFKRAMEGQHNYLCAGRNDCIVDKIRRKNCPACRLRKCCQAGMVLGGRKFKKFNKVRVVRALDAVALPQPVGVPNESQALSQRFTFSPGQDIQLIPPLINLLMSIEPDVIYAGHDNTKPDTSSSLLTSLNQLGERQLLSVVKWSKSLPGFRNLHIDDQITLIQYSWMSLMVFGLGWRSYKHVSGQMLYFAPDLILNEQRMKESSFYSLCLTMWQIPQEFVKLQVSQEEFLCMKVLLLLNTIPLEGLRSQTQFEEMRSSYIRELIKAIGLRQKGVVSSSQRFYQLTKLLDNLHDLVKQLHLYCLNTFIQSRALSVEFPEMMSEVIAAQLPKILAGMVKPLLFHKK
Experimental: (2) Progesterone Receptor Whole Cell Competition Binding Assay Using T47D Cells
PURPOSE: To evaluate the progesterone receptor (PR) binding activity of progestins or antiprogestins in live, intact (whole) cells using the human breast carcinoma T47D cell line and ^3H-progesterone as the labeled ligand.
Culture Medium: • 5% RC: phenol red free DMEM:F12 (1:1) (GIBCO, BRL) supplemented with 5% (v/v) charcoal stripped fetal bovine serum (not heat-inactivated), 100 U/mL penicillin, 100 μg/mL streptomycin, and 2 mM the GlutaMax™ reagent (GIBCO, BRL). • 10% RC: Same as above supplemented with 10% (v/v) FBS. • ^3H-Progesterone: Perkin Elmer Life Science, cat# NET-381 (typically around 102 Ci/mmol)
T47D cells were maintained in 10% RC media at 37° C. in a 5% CO2/humidified atmosphere and were split twice weekly for proper response. Cells were plated in 10% RC the day before binding assay at 50,000 cells per well in the white, clear bottom plates purchased through VWR or Perkin Elmer.
Cells plated the day prior to the assay in white clear bottom plates were used. A master compound plate was set up containing control and test compounds at 20× final desired concentration for the competition binding. A typical dose range of 20× concentrations were (in nM); 200,000; 20,000; 6000; 2000; 600; 200; 20; and 2. Final concentrations were (in nM); 10,000; 1000; 300; 100; 30; 10; 1; 0.1. Control compounds were typically run 10-fold lower than this and include a 0, or vehicle, control well. A stock of 60 nM ^3H-progesterone (20×) were also prepared at a volume needed of 10 μL per well.
Media on cells were replaced with 180 μL of 5% RC. Ten microliters (10 μL) of 60 nM ^3H-progesterone (for final concentration of 3 nM) was added immediately, followed by 10 μL of 20× test or control compounds. Compounds were incubated for 3 h at 37° C. (A time course study found no difference between 2 and 4 h incubation.)
Following incubation, media was carefully removed and cells were washed 3× with 200 μL 5% RC each wash. Fifty microliters of liquid scintillation cocktail was added and the plates were shaken vigorously for a minimum of 15 min. Plates were read on the Wallac Microbeta® 1450 plate reader.
Square root-transformed data were used for analysis of variance and calculation of IC50. SAS software (SAS Institute, Inc.) was used for all the statistical analysis.
Progesterone was used as a reference progestin and RU486 as a reference antiprogestin.

[2] = test system: alkaline phosphatase activity in T47D cells; test: Effects of progestins and antiprogestins on alkaline phosphatase activity in T47D cells (antagonist mode); assay type: cell-based; details: Homo sapiens, in the presence of 1 nM progesterone, read-out: T47D Alkaline Phosphatase Activity IC50 (nM) or % inhibition; for IC50: 24 h

SMILES | melting point [°C] | Ki [1] [nM] | IC50 [2] [nM] | inhibition at 3 µM ([2]; % inhibition at 3000 nM) [%]
C[C@H]1COC(=O)N1c1nc(-c2ccc(Br)cc2)cs1 [Example 3, (4S)-3-[4-(4-Bromophenyl)-1,3-thiazol-2-yl]-4-methyl-1,3-oxazolidin-2-one] | 196 to 198 | 55.3 | 24.6 | 
O=C1OC[C@@H](Cc2ccccc2)N1c1nc(-c2ccc(Br)cc2)cs1 [Example 36, (4R)-4-Benzyl-3-[4-(4-bromophenyl)-1,3-thiazol-2-yl]-1,3-oxazolidin-2-one] | 177 to 179 | 968 | 346 | 
CCCC1COC(=O)N1c1nc(-c2ccc(C#N)cc2)cs1 (stereo not drawn) [Example 40, 4-[2-(2-Oxo-4-propyl-1,3-oxazolidin-3-yl)-1,3-thiazol-4-yl]benzonitrile] | 132 to 134 | 42 | 9.9 | 
CCC1CN(c2nc(-c3ccc(C#N)cc3)cs2)C(=O)O1 (stereo not drawn) [Example 42, 4-[2-(5-Ethyl-2-oxo-1,3-oxazolidin-3-yl)-1,3-thiazol-4-yl]benzonitrile] | 168 to 170 | 700 | 117 | 
CC1(C)COC(=O)N1c1nc(-c2ccc([N+](=O)[O-])cc2)cs1 [Example 80, 4,4-Dimethyl-3-[4-(4-nitrophenyl)-1,3-thiazol-2-yl]-1,3-oxazolidin-2-one] |  | 34.5 | 8.6 | 
CC1COC(=O)N1c1nc(-c2ccc(C#N)cc2)cs1 (stereo not drawn) [Example 51, 4-[2-(4-Methyl-2-oxo-1,3-oxazolidin-3-yl)-1,3-thiazol-4-yl]benzonitrile] | 215 to 216 | 42.6 | 16.1 | 
CC1COC(=O)N1c1nc(-c2ccc(Br)cc2)cs1 (stereo not drawn) [Example 50, 3-[4-(4-Bromophenyl)-1,3-thiazol-2-yl]-4-methyl-1,3-oxazolidin-2-one] | 189 to 190 | 36.6 | 17.7 | 
CC[C@@H]1COC(=O)N1c1nc(-c2ccc(Br)cc2)cs1 [Example 9, (4R)-3-[4-(4-Bromophenyl)-1,3-thiazol-2-yl]-4-ethyl-1,3-oxazolidin-2-one] | 134 to 135 | 62.1 | 32.9 | 
O=C1OCC2(CCC2)N1c1nc(-c2ccc(Br)cc2)cs1 [Example 26, 5-[4-(4-Bromophenyl)-1,3-thiazol-2-yl]-7-oxa-5-azaspiro[3.4]octan-6-one] |  | 91.8 | 49.4 | 
CC1(C)COC(=O)N1c1nc(-c2ccc(C#N)c(F)c2)cs1 [Example 81, 4-[2-(4,4-Dimethyl-2-oxo-1,3-oxazolidin-3-yl)-1,3-thiazol-4-yl]-2-fluorobenzonitrile] |  | ~2000 | 2.3 | 
CC1(C)COC(=O)N1c1nc(-c2ccc(C#N)cc2F)cs1 [Example 79, 4-[2-(4,4-Dimethyl-2-oxo-1,3-oxazolidin-3-yl)-1,3-thiazol-4-yl]-3-fluorobenzonitrile] |  | 170 | 31.6 | 
N#Cc1ccc(-c2csc(N3C(=O)OC[C@@H]3CC(F)(F)F)n2)cc1 [Example 68, 4-{2-[(4S)-2-Oxo-4-(2,2,2-trifluoroethyl)-1,3-oxazolidin-3-yl]-1,3-thiazol-4-yl}benzonitrile] | 235 to 238 |  | 29.1 | 
CC1(C)OCC(=O)N1c1nc(-c2ccc(Br)cc2)cs1 [Example 77, 3-[4-(4-Bromophenyl)-1,3-thiazol-2-yl]-2,2-dimethyl-1,3-oxazolidin-4-one] |  | 584 | 372 | 
N#Cc1ccc(-c2csc(N3C(=O)OC[C@@H]3c3ccccc3)n2)cc1 [Example 46, 4-{2-[(4S)-2-Oxo-4-phenyl-1,3-oxazolidin-3-yl]-1,3-thiazol-4-yl}benzonitrile] | 242 to 244 |  | 194 | 
CC1(C)COC(=O)N1c1nc(-c2ccc(Br)cc2F)cs1 [Example 78, 3-[4-(4-Bromo-2-fluorophenyl)-1,3-thiazol-2-yl]-4,4-dimethyl-1,3-oxazolidin-2-one] |  | 45.6 | 24.8 | 
CC1(C)COC(=O)N1c1nc(-c2cccc(Br)c2)cs1 [Example 18, 3-[4-(3-Bromophenyl)-1,3-thiazol-2-yl]-4,4-dimethyl-1,3-oxazolidin-2-one] | 142 to 144 |  | 30 | 
CCC1CN(c2nc(-c3ccc(Br)cc3)cs2)C(=O)O1 (stereo not drawn) [Example 32, 3-[4-(4-Bromophenyl)-1,3-thiazol-2-yl]-5-ethyl-1,3-oxazolidin-2-one] | 141 to 142 |  | 407 | 
CC[C@H]1COC(=O)N1c1nc(-c2ccc(Br)cc2)c(F)s1 [Example 11, (4S)-3-[4-(4-Bromophenyl)-5-fluoro-1,3-thiazol-2-yl]-4-ethyl-1,3-oxazolidin-2-one] | 105 to 107 |  | 120 | 
CC1(C)COC(=O)N1c1nc(-c2sc(C#N)cc2Br)cs1 [Example 59, 4-Bromo-5-[2-(4,4-dimethyl-2-oxo-1,3-oxazolidin-3-yl)-1,3-thiazol-4-yl]thiophene-2-carbonitrile] | 230 to 234 |  | 99 | 
O=C1OCC(CC(F)(F)F)N1c1nc(-c2ccc(Br)cc2)cs1 (stereo not drawn) [Example 67, 3-[4-(4-Bromophenyl)-1,3-thiazol-2-yl]-4-(2,2,2-trifluoroethyl)-1,3-oxazolidin-2-one] | 163 to 165 |  | 95.5 | 
CCC[C@@H]1COC(=O)N1c1nc(-c2ccc(Br)cc2)cs1 [Example 20, (4R)-3-[4-(4-Bromophenyl)-1,3-thiazol-2-yl]-4-propyl-1,3-oxazolidin-2-one] | 114 to 116 |  | 70.2 | 
O=C1OC[C@@H](CCl)N1c1nc(-c2ccc(Br)cc2)cs1 [Example 72, (4S)-3-[4-(4-Bromophenyl)-1,3-thiazol-2-yl]-4-(chloromethyl)-1,3-oxazolidin-2-one] |  | 20 | 5.4 | 
O=C1OCCCN1c1nc(-c2ccc(Br)cc2)cs1 [Example 33, 3-[4-(4-Bromophenyl)-1,3-thiazol-2-yl]-1,3-oxazinan-2-one] | 225 to 227 |  | 238 | 
CC1OC(=O)N(c2nc(-c3ccc(C#N)cc3)cs2)C1(C)C (stereo not drawn) [Example 62, 4-[2-(4,4,5-Trimethyl-2-oxo-1,3-oxazolidin-3-yl)-1,3-thiazol-4-yl]benzonitrile] | 166 to 167 |  | 1.8 | 
CCCCC1COC(=O)N1c1nc(-c2ccc(Br)cc2)cs1 (stereo not drawn) [Example 30, 3-[4-(4-Bromophenyl)-1,3-thiazol-2-yl]-4-butyl-1,3-oxazolidin-2-one] | 153 to 155 |  |  | 100
